Results reported in paper PMC6123365, “Pharmacokinetics of Nuciferine and N-Nornuciferine, Two Major Alkaloids From Nelumbo nucifera Leaves, in Rat Plasma and the Brain” (Frontiers in Pharmacology, 2018).
Like-named read-outs stand apart in the source and are kept apart here.

Key:
[1] = Plasma pharmacokinetics after single i.v. dose of lotus leaf alkaloid fraction; format: in vivo, SD rats; details: male, iv, rat plasma, i.v. alkaloid fraction 10 mg/kg, mean ± SD, n = 5; for Vd: read-out: Vd, λz; for half-life: read-out: t1/2, λz (converted)
Experimental: (§1) The experimental animals (n = 10), male SD rats (200 ± 20 g), were supplied by the Institute of Laboratory Animal Sciences, Chinese Academy of Medical Sciences and Peking Union Medical College (Beijing, China). The animal experiments were approved by the Animal Ethics Committee at the Institute of Medicinal Plant Development, Chinese Academy of Medical Sciences. The day before the experiment, a light surgery was performed. A polyethylene catheter (0.50-mm ID, 1.00-mm OD, Portex Limited, Hythe, Kent, England) was cannulated into the right jugular vein under anesthesia with an intraperitoneal dose of chloral hydrate at 350 mg/kg. After surgery, the rats were placed individually in cages and allowed to recover for at least 12 h. The rats were fasted overnight with free access to water prior to drug administration.
(§2) Rats were randomly divided into two groups (five per group). Group 1 was treated with the alkaloid fraction dissolved in 0.03% HCl at a single oral dose of 50 mg/kg by gastric gavage. Group 2 was treated with the alkaloid fraction dissolved in normal saline solution containing 0.03% HCl at an i.v. dose of 10 mg/kg by rapid injection via the catheter. After i.v. administration, 0.2 mL of heparinized saline was injected into the catheter for cleaning.
(§3) Blood samples (0.2 mL) were collected from the catheter at multiple intervals (0.08, 0.17, 0.25, 0.50, 1, 2, 4, 6, 8, 12, and 16 h) after dosing. Samples were placed into a heparinized centrifuge tube and centrifuged at 3,000 × g and 4°C for 3 min for plasma separation. An aliquot (0.1 mL) of each separated plasma sample was immediately analyzed or stored at -20°C until assay. After each blood collection, 0.2 mL of normal saline containing 20 units of heparin was injected into the catheter to flush the catheter and prevent coagulation.
(§4) An aliquot of 100 μL of plasma was vortexed with 20 μL of IS (10 μg/mL) and then mixed with 1.5 mL of ethyl acetate for 10 min. Following centrifugation at 8,000 × g for 5 min, the organic phase was completely transferred to a glass tube and concentrated by a gentle nitrogen stream at 40°C. Subsequently, the residue was reconstituted in 150 μL of 80% methanol. Then, the solution was transferred into a small clean tube and centrifuged for 5 min at 16,000 × g. Finally, 10 μL of the supernatant was directly injected into the UPLC system for analysis.
(§5) Pharmacokinetic parameters were estimated by the drug concentration in the plasma or brain versus time profiles using WinNonlin software (Pharsight Corporation, Mountain View, CA, United States, Version 2.1). A non-compartmental model was employed to calculate the following parameters: initial plasma concentration (C0) for the i.v. dose, plasma or brain maximum concentration (Cmax), time of maximum concentration (Tmax), terminal elimination half-life (t1/2, λz), area under the plasma concentration versus time curve from time zero to the last sampling time (AUC0-t) and zero to infinity (AUC0-inf), total body clearance (CL), volume of distribution (Vd, λz), and MRT. Absolute bioavailability (F) was calculated based on the plasma AUC0-inf obtained after oral and i.v. administration at the equivalent dose. The analyte concentration (Cf) in the brain lateral ventricle at each time point was calculated from its probe recovery (Rdial) and determined concentration (Cd) in dialysate by the equation, Cf = Cd/Rdial.

CYP2D6 isoenzyme = system: CYP2D6 isoenzyme; parameters: method as in Ye et al., 2014; details: competitive manner; ref Ye et al., 2014; cited from earlier work
[2] = parameters: method as in earlier work; details: ref National Center for Biotechnology Information. PubChem Compound Database (CID = 10146; CID = 12313579); cited from earlier work
[3] = Plasma pharmacokinetics after single oral dose of lotus leaf alkaloid fraction; format: in vivo, SD rats; details: for bioavailability / Tmax / AUC(0-inf) / AUC(0-t) / Cmax / MRT inf / half-life: male; for bioavailability: SD, rat, from plasma AUC0-inf after oral (50 mg/kg) and i.v. (10 mg/kg) alkaloid fraction, read-out: F (absolute oral bioavailability); for Tmax / AUC(0-inf) / AUC(0-t) / Cmax / MRT inf / half-life / CL / Vd, λz: rat plasma, mean ± SD, n = 5; for Tmax: oral alkaloid fraction 50 mg/kg (NF 22.5, N-NF 10 mg/kg); for AUC(0-inf) / AUC(0-t) / Cmax / MRT inf / half-life / CL / Vd, λz: oral alkaloid fraction 50 mg/kg; for half-life: read-out: t1/2, λz (converted)
Experimental: as §1, §2, §3, §4, §5

[4] = Brain pharmacokinetics (unbound, lateral ventricle) by microdialysis after i.v. dose of alkaloid fraction; format: in vivo, rats; details: rat brain lateral ventricle, mean ± SD, n = 6; for AUC(0-inf) / AUC(0-t) / MRT inf / half-life / Tmax / Cmax: Sprague-Dawley, brain lateral ventricle microdialysate (unbound), iv; for half-life: read-out: t1/2, λz (converted); for Tmax / Cmax: unbound; for Tmax: i.v. alkaloid fraction 20 mg/kg (NF 9, N-NF 4 mg/kg)
Experimental: The microdialysis experiment was conducted as previously described ([Xiao et al., 2016]). Briefly, the rats were anesthetized with an intraperitoneal dose of chloral hydrate 350 mg/kg, and a guide cannula [MAB6 (9).14.IC; MAB, Stockholm, Sweden] was stereotaxically implanted into the lateral ventricle of the brain at the following coordinates relative to bregma: anterior -0.9 mm; lateral +1.5 mm; and lowered 3.1 mm ventral to the dura surface. The guide cannula was secured in place with skull screws and dental cement. The rats were placed in separate cages for at least 3 days to recover. Then, a light surgery was performed as described above.
The probe was perfused with aCSF containing 5 mM β-CD at a flow rate of 2 μL/min. The brain microdialysis system consisted of a syringe microinfusion pump (CMA 400, CMA Microdialysis, Solna, Sweden), equipment for freely moving animals (CMA 120, CMA Microdialysis, Solna, Sweden), a microdialysis probe (MAB6.14.4; 4 mm, MAB, Stockholm, Sweden) and an automatic sample collector (CMA 470, CMA Microdialysis, Solna, Sweden) set at 4°C. The rat was allowed to equilibrate for 1 h prior to the initiation of sample collection. After blank dialysate samples were collected, the animal received an i.v. dose of the alkaloid fraction at 20 mg/kg by injection through the jugular vein. An 8 min delay was incorporated into the sampling procedure to compensate for the dead volume between the active membrane and the sample collection outlet. The dialysates were collected every 20 min time interval for 2 h and then every 30 min time interval for 4 h. The collected samples were kept at 4°C and analyzed within 24 h.
as §5

[5] = rats, cited from earlier work
[6] = i.v. alkaloid fraction 20 mg/kg

SMILES	AUC(0-inf) [1] [ng·h/mL]	AUC(0-t) [1] [ng·h/mL]	C0 [1] [ng/mL]	MRT inf [1] [h]	clearance [1] [mL/min/kg]	Vd [1] [L/kg]	half-life [1] [h]	inhibition of CYP2D6 isoenzyme activity (CYP2D6 isoenzyme)	LogP [2]	bioavailability [3] [%]	Tmax [3] [h]	AUC(0-inf) [3] [ng·h/mL]	AUC(0-t) [3] [ng·h/mL]	Cmax [3] [ng/mL]	MRT inf [3] [h]	half-life [3] [h]	CL [3] [mL/min/kg]	Vd, λz [3] [L/kg]	AUC(0-inf) [4, 6] [ng·h/mL]	AUC(0-t) [4, 6] [ng·h/mL]	other results
COc1cc2c3c(c1OC)-c1ccccc1CC3NCC2 (centres unmarked) [N-NF, N-nornuciferine]	850 ± 280	740 ± 200	690 ± 560	4.94 ± 1.83	43.5	15.2 ± 2.17	3.84 ± 1.27	significantly inhibit	3	79.9	1.65 ± 0.78	3400 ± 700	3320 ± 670	570 ± 100	4.71 ± 0.72	2.94 ± 0.4	40.7 ± 9.33	10.34 ± 2.64	500 ± 60	460 ± 70	MRT inf [4, 6]: 2.98 ± 0.49 h; half-life [4, 6]: 1.39 ± 0.68 h; Tmax [4]: 1.22 ± 0.27 h; Cmax [4, 6]: 160 ± 30 ng/mL; CL/F [4, 6]: 135 ± 16.7 mL/min/kg
COc1cc2c3c(c1OC)-c1ccccc1C[C@H]3N(C)CC2 [NF, nuciferine]	2130 ± 400	2090 ± 380	2580 ± 890	2.07 ± 0.74	35.8	9.48 ± 3.17	2.09 ± 0.64	significantly inhibit	3.4	58.1	0.9 ± 0.72	6200 ± 1330	6130 ± 1350	1710 ± 450	3.35 ± 0.8	2.48 ± 0.66	36.5 ± 7.5	7.87 ± 2.84	830 ± 130	780 ± 130	MRT inf [4, 6]: 2.46 ± 0.35 h; half-life [4, 6]: 1.24 ± 0.33 h; Tmax [4]: 0.89 ± 0.17 h; Cmax [4, 6]: 320 ± 70 ng/mL; CL/F [4, 6]: 184.7 ± 30 mL/min/kg; Vd, λz/F [4, 6]: 19.78 ± 5.79 L/kg; oral bioavailability ([5]; oral administration of pure NF, LC-MS/MS, ref Xie et al., 2010): 69.56%; oral bioavailability ([5]; pure NF, ref Gu et al., 2014): 3.9%
